In patent US9687480B2, “Chiral 1-(4-methylphenylmethyl)-5-oxo-{N-[(3-t-butoxycarbonyl-aminomethyl)]-piperidin-1-yl)-pyrrolidine as inhibitors of collagen induced platelet activation and adhesion” (Council of Scientific & Industrial Research, priority 2011, dated 2017):

Legend:
rats = test: FeCl3 induced carotid artery thrombosis in rats; assay type: in vivo; conditions: for time to occlude the carotid artery (TTO): compound 1 at the same dose as compound 6, aspirin at a very high dose
Method: Male SD rats were anesthetized by urethane (1.25 g/kg, i.p.). The carotid artery was carefully dissected and a pulsed Doppler Probe (DBF-120A-CPx, CBI-8000, Crystal Biotech, USA) was placed around it to record the blood flow velocity and patency of the blood vessels. The carotid artery thrombosis was induced by FeCl3 as follows: a square (1×1 mm) of Whatman Chromatography paper was immersed in 20% FeCl3 solution for 5 min and placed on the carotid artery as described earlier (Kurz K D, Main B W, Sandusky G E. Rat model of arterial thrombosis induced by ferric chloride. Thromb Res 1990; 60(4):269-80). Thrombosis was monitored as the reduction in carotid artery blood flow. The time at which the blood-flow velocity was decreased to zero was recorded as the total of occlusion (TTO) of the carotid artery. […] (Ferric Chloride induced thrombosis (FIG. 7))

[1] = system: mice platelet rich plasma; test: Platelet aggregation (mice, ex vivo) induced by collagen; assay type: in vivo; conditions: oral route
Method: (§1) The reaction was allowed to proceed for at least 5 min, and the extent of aggregation was expressed in light-transmission units (Ivandic B T, Schlick P, Starltz P, Kurz K, Katas H A, Giannitsis E. Determination of clopidogrel resistance by whole blood platelet aggregometry and inhibitors of the P2Y12 receptor. Clinical Chemistry 2006: 52:383-88).

[2] = system: collagen stimulated platelets; test: Immunoblotting: tyrosine phosphorylation of platelet proteins after collagen stimulation; assay type: cell-based, human; conditions: 10-100 μM
Method: Platelet rich plasma (2×10^8/ml) was pre-incubated with test compound (10-100 μM) or the isovolumetric solvent control (0.5% DMSO) for 5 minutes, followed by the addition of collagen, to trigger platelet activation. The reaction was stopped by the addition of ice cold stop buffer (5 mM EDTA, 5 mM EGTA) and the suspensions were centrifuged at 800×g for 10 minutes and then immediately resuspended in 300 μl of lysis buffer (50 mM HEPES, 5 mM EDTA, 50 mM NaCl, 1% Triton X-100, 10 μg/ml aprotinin, 1 mM PMSF, 10 μg/ml leupeptin, 10 mM NaF, 1 mM sodium orthovanadate, and 5 mM sodium pyrophosphate) (Ezumi Y. Shindoh K, Tsuji M, and Takayama H Physical and Functional Association of the Src Family Kinases Fyn and Lyn with the Collagen Receptor Glycoprotein VI-Fc Receptorg Chain Complex on Human Platelets. J. Exp. Med. 1998; 188: 287-[…]). Lysates were centrifuged at 12,000×g for 5 minutes, after which the supernatants were dissolved in Laemmeli sample buffer (Laemmeli, 1970). […] Immunoreactive bands were detected by chemiluminescence using the ECL-enhanced chemiluminescence system (Inoue K, Ozaki Y, Satoh K, u Y, Yatomi Y, Shin Y and Morita T Signal Transduction Pathways Mediated by Glycoprotein Ia/IIa in Human Platelets: Comparison with those of Glycoprotein VI. Biochem. I and Biophys. Res. Comm. 1999; 256: 114-120).

[3] = system: human platelet rich plasma (Convulxin, GP VI agonist); test: Convulxin induced platelet aggregation, human platelet rich plasma (in vitro); assay type: cell-based; conditions: at 500 μM
Method: as §1
The percentage of aggregation was calculated by using following formula: Percent Aggregation=A/B×100 Where, A is the number of division traversed by the label on chart in the presence of Inducer & B is the total number of divisions (80). Platelet Aggregation Studies (FIG. 3) a) Platelet Aggregation (Human, In Vitro) (FIG. 3a (i) (ii) (iii))

human platelets = test: Intracellular calcium mobilization in Fura-2 loaded platelets stimulated by collagen; assay type: cell-based; conditions: Fura-2 loaded human platelets, collagen 5 μg/ml
Method: Ca^+2 concentration ([Ca^+2]i) were monitored by Fura-2AM fluorescence in the platelets (Fowler C J. Tiger G Calibration of Fura-2 signals introduces errors into measurement of thrombin-stimulated calcium mobilization in human platelets. Clinica Chimica Acta. 1997; 265:247-261). Human PRP was incubated with 5 μM Fura-2 AM (Sigma) for 60 minutes at 37° C. After 2 washes with the wash buffer, the platelets were resuspended at 2×10^6 cells/mL with the Tyrode's-HEPES buffer. After incubating with various concentrations of compound for 5 minutes, the platelets were stimulated with collagen (5 μg/mL)(the concentration of collagen was varied in accordance with cell number). The Fura-2 fluorescence was measured for 5 minutes at an excitation wavelength of 340/380 nm and emission wavelength of 500 nm (Yoshida S., Sudo T., Niimi M., Tao L., Sun B., Kambayashi J., Watanabe H., Luo E., and Matsuoka H. Inhibition of collagen-induced platelet aggregation by anopheline antiplatelet protein, a saliva protein from a malaria vector mosquito. Blood 2007; 111: 2007-201) using a fluorescence spectrophotometer (VARIAN, Cary Eclipse).

hyperlipidemic hamsters = test: Arterio-venous shunt model in hyperlipidemic hamsters; assay type: in vivo
mouse platelets = test: Platelet adhesion over collagen matrix (mice, ex vivo); assay type: in vivo; conditions: oral route, compound 6 10, 30, 100 μM/kg, aspirin 100 μM/kg
From the text: FIG. 4b: Adhesion of mouse platelets on collagen matrix as observed under fluorescence microscope 40× (ex vivo method). Different pictures show the different treatment performed. Washed murine platelets (2×10^6/ml) were obtained from animals pretreated with the compound (compound 6) (different doses) and seeded on BSA or Collagen (fibrillar) coated cover slips (A, B). Platelets from untreated animals were allowed to adhere on uncoated and BSA coated cover slip respectively to delineate the possibility of non specific binding. C, D. control platelets were adhered on collagen coated cover slip (control). E. F&G. Platelets obtained from animals pre-treated with compound 6 (10 μM/kg, 30 μM/kg & 100 μM/kg) respectively were adhered on collagen coated cover slip. H, I. Platelets from Aspirin (100 μM/kg) & Clopidogrel treated (100 μM/kg) animals resp. (standard Drugs) and adhered on collagen coated cover slip (n=5, 5 animals/group/experiment).

Structure (SMILES)	time to occlude the carotid artery (TTO) (rats; rats)	collagen induced platelet aggregation (ex vivo) [1]	tyrosine phosphorylation of platelet proteins [2]	inhibition of convulxin induced platelet aggregation [3]	Ferric chloride induced thrombosis in rats (rats; Table 2 summary)	time to occlusion, dose dependence (rats; rats, 10, 30 & 100 μM/kg)	calcium mobilization ([Ca2+]i) during collagen stimulation (human platelets)	Arterio-venous shunt model in hyperlipidemic hamsters (hyperlipidemic hamsters; Table 2 summary, Even at 10 μM)	thrombus weight (hyperlipidemic hamsters; hyperlipidemic hamsters, compound 6 at 10 μM/kg)	platelet adhesion (ex vivo) over collagen surface (mouse platelets)
Cc1ccc(CN2C(=O)CC[C@H]2C(=O)N2CCCC(CNC(=O)OC(C)(C)C)C2)cc1 (some centres unmarked) [Compound 1, 1-(4-methylphenylmethyl)-5-oxo-{N-[(3-t-butoxycarbonyl-aminomethyl)]-piperidin-1-yl}-pyrrolidine-2-carboxamides]	failed to exhibit any protection									
Cc1ccc(CN2C(=O)CC[C@H]2C(=O)N2CCC[C@@H](CNC(=O)OC(C)(C)C)C2)cc1 [Compound 6]	significantly prolonged	dose dependent inhibition	attenuated the tyrosine phosphorylation	does not significantly inhibit	Protective	dose dependently exhibited prolongation in time to occlusion	concentration dependent inhibition	Protective	significantly reduced the thrombus weight	dose dependent inhibition
